Assays:
Type in all cases: biochemical
BTK C481S = target: T1, BTK C481S (Homo sapiens, UniProt Q06187, C481S); assay: Kinase activity inhibition assay (HTRF TK Kit)
T1 construct: purchased Carna 08-547
Text: (§1) In this assay, the HTRF TK Kit (Catalog No. 62TK0PEC) provided by Cisbio was used to detect the inhibitory activity of compounds on BTK kinase, BTK T474I kinase and BTK C481 S kinase and the selectivity of compounds relative to EGFR, ITK and TEC kinases.
(§2) Reagents and consumables: BTK kinase (Invitrogen, Catalog No. PV3587), BTK C481S (Carna, Product No. 08-547), BTK T474I(SignalChem Product No. B10-12HH), ITK (Cama, Product No. 08-181), EGFR (Cama, Product No. 08-115), TEC (Carna, Product No. 08-182), HTRF-TK kit (Cisbio, Product No. 62TK0PEC), MgCl2 (Sigma, Product No. M1028), MnCl2 (Sigma, Product No. M1787), DTT (Sigma, Product No. D0632), ATP (Sigma, Product No. A7699-1g), DMSO (Sigma, Product No. D2650), 384-well plate (PE, Product No. 6008280).
(§3) The entire operation steps were carried out on ice, and the total reaction volume was 10µL. A compound (4µL), substrate and ATP (4µL), and kinase (2µL) were added in sequence to a 384-well plate, and the plate was shaken for 30 seconds. The mixture was reacted at room temperature for an appropriate time, and then the detection reagent was added. The resulting mixture was reacted at room temperature for 1 hour, and then the plate was assayed with a microplate reader. The specific steps were as follows: • a) a 1 × kinase buffer solution required for the kinase assay was calculated according to the amount of the test compound, and prepared as needed; • b) 2.5 × working concentration of a compound was prepared, 100-fold gradient concentration solutions of a compound were diluted by 40 × to the desired concentration, respectively, mixed well, and added to each well at 4 µL per well; • c) 5 × working concentration of the substrate and ATP were prepared, mixed in a ratio of 1:1 before being added to the 384-well plate, and added to each well at 4 µL per well; • d) 5 × working concentration of a kinase was prepared, 2 µL of which was added to each well; • e) the plate was shaken on a microplate shaker for 30 seconds, sealed with a sealing membrane, and the mixture was reacted at room temperature for an appropriate time; • f) 4 × working concentration of streptavidin XL-665 and TK antibody-cryptate compound were prepared, mixed in a ratio of 1:1 before being added to the 384-well plate, and added to each well at 10 µL per well; • g) the mixture was reacted at room temperature for 1 hour, and then the plate was read; • h) the wells with only substrate, ATP and 1% DMSO added but no kinase were blank control wells, and the wells with only substrate, ATP, 1% DMSO and kinase were positive control wells.
(§4) Readings: The values of 620 nm (cryptate) and 665 nm (XL665) were read with a BioTek Synerg Neo2 microplate reader, the ratio of 665/620 for each well was calculated, and the data were exported.
(§5) Data analysis: IC50 was calculated using GraphPad Prism 7.0 software.
(§6) The IC50 (half-maximal inhibitory concentration) of the compound was obtained using the following nonlinear fitting formula: Y = Bottom + (Top−Bottom)/(1+10^(∧)((LogIC50−X)*HillSlope)) [formula] • X: Log value of the compound concentration • Y: Inhibition rate (% inhibition) • Top: Maximum response • Bottom: Baseline response • HillSlope: Slope of the curve
(§7) The formula for calculating kinase inhibition rate (inhibition rate %) was: [formula]

BTK T474I = target: T2, BTK T474I (Homo sapiens, UniProt Q06187, T474I); assay: Kinase activity inhibition assay (HTRF TK Kit)
T2 construct: purchased SignalChem B10-12HH
Text: as §1, §2, §3, §4, §5, §6, §7

BTK kinase = target: T3, BTK kinase (Homo sapiens, UniProt Q06187); assay: Kinase activity inhibition assay (HTRF TK Kit)
T3 construct: purchased Invitrogen PV3587
Text: as §1, §2, §3, §4, §5, §6, §7

EGFR = target: T4, EGFR (Homo sapiens, UniProt P00533); assay: Kinase activity inhibition assay (HTRF TK Kit), selectivity
T4 construct: purchased Carna 08-115
Text: as §1, §2, §3, §4, §5, §6, §7

ITK = target: T5, ITK (Homo sapiens, UniProt Q08881); assay: as above
T5 construct: purchased Carna 08-181
T5 sequence (Q08881 1-620): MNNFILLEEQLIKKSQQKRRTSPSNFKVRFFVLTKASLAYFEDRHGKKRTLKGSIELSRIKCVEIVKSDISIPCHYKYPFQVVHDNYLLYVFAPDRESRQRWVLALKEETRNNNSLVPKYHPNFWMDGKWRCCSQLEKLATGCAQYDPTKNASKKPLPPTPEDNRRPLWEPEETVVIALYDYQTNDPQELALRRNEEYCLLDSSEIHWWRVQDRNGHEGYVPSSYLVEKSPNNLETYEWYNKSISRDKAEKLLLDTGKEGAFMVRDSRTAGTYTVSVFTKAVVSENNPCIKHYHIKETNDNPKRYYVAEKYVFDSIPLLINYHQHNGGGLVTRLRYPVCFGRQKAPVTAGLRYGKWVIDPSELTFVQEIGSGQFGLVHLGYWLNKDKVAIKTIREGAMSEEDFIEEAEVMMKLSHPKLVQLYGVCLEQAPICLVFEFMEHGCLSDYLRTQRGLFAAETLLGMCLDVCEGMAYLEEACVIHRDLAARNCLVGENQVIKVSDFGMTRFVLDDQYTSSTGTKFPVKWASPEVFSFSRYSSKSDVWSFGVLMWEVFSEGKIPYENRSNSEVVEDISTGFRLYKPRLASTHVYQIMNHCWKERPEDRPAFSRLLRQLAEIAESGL
Text: as §1, §2, §3, §4, §5, §6, §7

TEC = target: T6, TEC (Homo sapiens, UniProt P42680); assay: as above
T6 construct: purchased Carna 08-182
T6 sequence (P42680 1-631): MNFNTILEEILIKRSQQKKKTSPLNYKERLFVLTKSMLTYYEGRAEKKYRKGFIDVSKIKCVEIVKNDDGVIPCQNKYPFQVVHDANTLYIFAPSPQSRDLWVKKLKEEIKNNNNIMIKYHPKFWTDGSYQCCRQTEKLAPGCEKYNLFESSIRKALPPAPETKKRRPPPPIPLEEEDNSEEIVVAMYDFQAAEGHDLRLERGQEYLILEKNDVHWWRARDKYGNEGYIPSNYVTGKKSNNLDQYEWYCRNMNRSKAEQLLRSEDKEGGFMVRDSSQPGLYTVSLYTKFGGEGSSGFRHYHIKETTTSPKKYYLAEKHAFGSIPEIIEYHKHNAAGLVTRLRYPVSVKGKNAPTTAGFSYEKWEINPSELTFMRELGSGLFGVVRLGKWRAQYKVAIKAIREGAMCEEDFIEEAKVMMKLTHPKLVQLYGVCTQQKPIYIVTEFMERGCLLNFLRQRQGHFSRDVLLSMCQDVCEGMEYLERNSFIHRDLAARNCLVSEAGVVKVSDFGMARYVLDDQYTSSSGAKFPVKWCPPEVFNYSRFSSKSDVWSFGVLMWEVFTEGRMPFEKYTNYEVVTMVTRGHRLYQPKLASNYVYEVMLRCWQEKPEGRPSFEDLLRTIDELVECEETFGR
Text: as §1, §2, §3, §4, §5, §6, §7

T1 sequence (Q06187 whole entry C481S): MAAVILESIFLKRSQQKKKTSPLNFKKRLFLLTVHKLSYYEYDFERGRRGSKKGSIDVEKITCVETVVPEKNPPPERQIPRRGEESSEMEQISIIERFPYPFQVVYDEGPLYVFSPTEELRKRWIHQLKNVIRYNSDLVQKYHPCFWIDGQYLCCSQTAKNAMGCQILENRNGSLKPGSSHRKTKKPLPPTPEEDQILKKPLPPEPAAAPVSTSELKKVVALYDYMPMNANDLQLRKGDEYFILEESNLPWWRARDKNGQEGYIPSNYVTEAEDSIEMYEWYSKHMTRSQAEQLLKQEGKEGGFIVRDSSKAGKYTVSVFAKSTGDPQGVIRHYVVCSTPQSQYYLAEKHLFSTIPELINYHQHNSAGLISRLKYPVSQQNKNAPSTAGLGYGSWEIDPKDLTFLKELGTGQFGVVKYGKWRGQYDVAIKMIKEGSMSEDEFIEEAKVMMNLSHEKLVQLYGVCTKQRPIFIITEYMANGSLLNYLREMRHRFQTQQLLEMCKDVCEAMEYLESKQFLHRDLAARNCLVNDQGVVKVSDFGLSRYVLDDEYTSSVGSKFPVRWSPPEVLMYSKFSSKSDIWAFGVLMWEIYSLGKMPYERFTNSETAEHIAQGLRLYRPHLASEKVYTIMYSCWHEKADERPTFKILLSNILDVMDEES
T4 sequence (P00533 669-1210 limits assumed): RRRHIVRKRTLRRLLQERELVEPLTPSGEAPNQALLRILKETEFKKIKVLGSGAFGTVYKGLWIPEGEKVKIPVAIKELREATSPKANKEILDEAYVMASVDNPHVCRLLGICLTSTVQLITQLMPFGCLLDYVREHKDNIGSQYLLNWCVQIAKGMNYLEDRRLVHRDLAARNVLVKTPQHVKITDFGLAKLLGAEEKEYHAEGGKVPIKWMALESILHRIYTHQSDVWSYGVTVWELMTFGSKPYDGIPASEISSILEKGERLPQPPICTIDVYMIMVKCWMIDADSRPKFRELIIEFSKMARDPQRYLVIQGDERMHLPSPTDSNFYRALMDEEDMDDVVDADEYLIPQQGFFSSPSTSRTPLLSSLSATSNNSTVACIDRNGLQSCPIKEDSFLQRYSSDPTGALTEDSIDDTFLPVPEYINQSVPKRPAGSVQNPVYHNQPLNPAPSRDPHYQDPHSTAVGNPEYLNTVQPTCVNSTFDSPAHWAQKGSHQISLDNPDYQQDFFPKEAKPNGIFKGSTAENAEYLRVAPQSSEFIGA
T2 sequence (Q06187 whole entry T474I): as the sequence (Q06187 whole entry C481S) above, with T474I, S481C counted along it
T3 sequence (Q06187 whole entry): as the sequence (Q06187 whole entry C481S) above, with S481C counted along it

Row | IC50 (BTK C481S) | IC50 (BTK T474I) | IC50 (BTK kinase) | IC50 (EGFR) | IC50 (ITK) | IC50 (TEC) | SMILES
1 | 0.001 to 0.005 µM | 0.05 to 0.5 µM | 0.001 to 0.005 µM | > 0.5 µM | > 0.5 µM | 0.005 to 0.05 µM | COc1ccc(F)cc1C(=O)NCc1ccc(-c2ncc(-c3ncccn3)c3[nH]nc(N)c23)cc1 [Example 17, N-(4-(3-amino-7-(pyrimidin-2-yl)-1H-pyrazolo[4,3-c]pyridin-4-yl)benzyl)-5-fluoro-2-methoxybenzamide]
2 | 0.001 to 0.005 µM | 0.05 to 0.5 µM | 0.005 to 0.05 µM | > 0.5 µM | > 0.5 µM | 0.05 to 0.5 µM | COc1ccc(F)cc1C(=O)NCc1ccc(-c2ncc(-c3cnccn3)c3[nH]nc(N)c23)cc1 [Example 18, N-(4-(3-amino-7-(pyrazin-2-yl)-1H-pyrazolo[4,3-c]pyridin-4-yl)benzyl)-5-fluoro-2-methoxybenzamide]
3 | 0.001 to 0.005 µM | 0.05 to 0.5 µM | 0.001 to 0.005 µM | > 0.5 µM | > 0.5 µM | 0.05 to 0.5 µM | COc1ccc(F)cc1C(=O)NCc1ccc(-c2ncc(-c3ccncn3)c3[nH]nc(N)c23)cc1 [Example 19]
4 | 0.005 to 0.05 µM | 0.05 to 0.5 µM | 0.001 to 0.005 µM | > 0.5 µM | > 0.5 µM | 0.05 to 0.5 µM | COc1ccc(F)cc1C(=O)NCc1ccc(-c2ncc(-c3ccc(F)cn3)c3[nH]nc(N)c23)cc1 [Example 21, N-(4-(3-amino-7-(5-fluoropyridin-2-yl)-1H-pyrazolo[4,3-c]pyridin-4-yl)benzyl)-5-fluoro-2-methoxybenzamide]
5 | 0.005 to 0.05 µM | 0.05 to 0.5 µM | 0.005 to 0.05 µM | > 0.5 µM | > 0.5 µM | > 0.5 µM | COc1ccc(F)cc1C(=O)NCc1ccc(-c2ncc(-c3cnn(C)c3)c3[nH]nc(N)c23)cc1 [Example 22, N-(4-(3-amino-7-(1-methyl-1H-pyrazol-4-yl)-1H-pyrazolo[4,3-c]pyridin-4-yl)benzyl)-5-fluoro-2-oxybenzamide]
6 | ≤ 0.001 µM | 0.05 to 0.5 µM | ≤ 0.001 µM | 0.05 to 0.5 µM | > 0.5 µM | 0.005 to 0.05 µM | COc1ccc(F)cc1C(=O)NCc1ccc(-c2ncc(-c3ccn(C)n3)c3[nH]nc(N)c23)cc1 [Example 23, N-(4-(3-amino-7-(1-methyl-1H-pyrazol-3-yl)-1H-pyrazolo[4,3-c]pyridin-4-yl)benzyl)-5-fluoro-2-methoxybenzamide]
7 | 0.005 to 0.05 µM | 0.05 to 0.5 µM | 0.005 to 0.05 µM | > 0.5 µM | > 0.5 µM | 0.05 to 0.5 µM | COc1ccc(F)cc1C(=O)NCc1ccc(-c2ncc(-c3ccc(C(F)(F)F)cn3)c3[nH]nc(N)c23)cc1 [Example 24, N-(4-(3-amino-7-(5-(trifluoromethyl)pyridin-2-yl)-1H-pyrazolo[4,3-c]pyridin-4-yl)benzyl)-5-fluoro-2-methoxybenzamide]
8 | 0.001 to 0.005 µM | 0.05 to 0.5 µM | 0.001 to 0.005 µM | 0.05 to 0.5 µM | > 0.5 µM | 0.05 to 0.5 µM | COc1ccc(F)cc1C(=O)NCc1ccc(-c2ncc(-c3ccn(CC(=O)N(C)C)n3)c3[nH]nc(N)c23)cc1 [Example 25, N-(4-(3-amino-7-(1-(2-(dimethylamino)-2-oxoethyl)-1H-pyrazol-3-yl)-1H-pyrazolo[4,3-c]pyridin-4-yl)benzyl)-5-fluoro-2-methoxybenzamide]
9 | 0.001 to 0.005 µM | 0.05 to 0.5 µM | 0.001 to 0.005 µM | 0.05 to 0.5 µM | > 0.5 µM | 0.05 to 0.5 µM | CNC(=O)Cn1ccc(-c2cnc(-c3ccc(CNC(=O)c4cc(F)ccc4OC)cc3)c3c(N)n[nH]c23)n1 [Example 26, N-(4-(3-amino-7-(1-(2-(methylamino)-2-oxoethyl)-1H-pyrazol-3-yl)-1H-pyrazolo[4,3-c]pyridin-4-yl)benzyl)-5-fluoro-2-methoxybenzamide]
10 | 0.001 to 0.005 µM | 0.05 to 0.5 µM | 0.001 to 0.005 µM | 0.005 to 0.05 µM | 0.05 to 0.5 µM | 0.005 to 0.05 µM | COc1ccc(F)cc1C(=O)NCc1ccc(-c2ncc(-c3ccn(CC(F)(F)F)n3)c3[nH]nc(N)c23)cc1 [Example 28, N-(4-(3-amino-7-(1-(2,2,2-trifluoroethyl)-1H-pyrazol-3-yl)-1H-pyrazolo[4,3-c]pyridin-4-yl)benzyl)-5-fluoro-2-methoxybenzamide]
11 | 0.001 to 0.005 µM | 0.05 to 0.5 µM | 0.001 to 0.005 µM | 0.05 to 0.5 µM | > 0.5 µM | 0.05 to 0.5 µM | COc1ccc(F)cc1C(=O)NCc1ccc(-c2ncc(-c3cn(C)cn3)c3[nH]nc(N)c23)cc1 [Example 30, N-(4-(3-amino-7-(1-methyl-1H-imidazol-4-yl)-1H-pyrazolo[4,3-c]pyridin-4-yl)benzyl)-5-fluoro-2-methoxybenzamide]
12 | 0.001 to 0.005 µM | 0.05 to 0.5 µM | 0.001 to 0.005 µM | 0.05 to 0.5 µM | > 0.5 µM | 0.05 to 0.5 µM | COc1ccc(F)cc1C(=O)NCc1ccc(-c2ncc(-c3cc[nH]n3)c3[nH]nc(N)c23)cc1 [Example 31, N-(4-(3-amino-7-(1H-pyrazol-3-yl)-1H-pyrazolo[4,3-c]pyridin-4-yl)benzyl)-5-fluoro-2-methoxybenzamide]
13 | ≤ 0.001 µM | 0.005 to 0.05 µM | ≤ 0.001 µM | 0.05 to 0.5 µM | 0.05 to 0.5 µM | 0.005 to 0.05 µM | COc1ccc(F)cc1C(=O)NCc1ccc(-c2ncc(-c3ccc(S(C)(=O)=O)cn3)c3[nH]nc(N)c23)cc1 [Example 35, N-(4-(3-amino-7-(5-(methylsulfonyl)pyridin-2-yl)-1H-pyrazolo[4,3-c]pyridin-4-yl)benzyl)-5-fluoro-2-methoxybenzamide]

Reference: patent EP4741392A1, “1H-PYRAZOLO[4,3-C]PYRIDINE COMPOUND, AND COMPOSITION THEREOF AND USE THEREOF” (Shenzhen TargetRx Co., Ltd., priority 2023, dated 2025)
